Assay results as given in ChEMBL document CHEMBL4052632 (Eur J Med Chem, 2017).

Assays:
[1] = target: Dual specificity mitogen-activated protein kinase kinase 1 (Homo sapiens) (UniProt Q02750); assay: Inhibition of recombinant human MEK1 using inactivated ERK2 as substrate at 100 uM after 60 mins in presence of ATP relative to control
[2] = target: Vascular endothelial growth factor receptor 2 (Homo sapiens) (UniProt P35968); assay: Inhibition of KDR (unknown origin) using poly (Glu, Tyr) 4:1 as substrate at 100 uM after 1 hr by ELISA relative to control
[3] = target: Tyrosine-protein kinase receptor UFO (Homo sapiens) (UniProt P30530); assay: Inhibition of AXL (unknown origin) using poly (Glu, Tyr) 4:1 as substrate at 100 uM after 1 hr by ELISA relative to control
[4] = target: Protein kinase C alpha type (Homo sapiens) (UniProt P17252); assay: Inhibition of recombinant human PKCalpha using biotinyl-beta Abeta Abeta AKIQASFRGHMARKK as substrate at 100 uM after 10 mins in presence of ATP relative to control
Homo sapiens = species: Homo sapiens; assay: Inhibition of recombinant human CK2 using Ulight-IkappaB-alpha as substrate at 100 uM after 60 mins in presence of ATP relative to control
[5] = target: Mitogen-activated protein kinase 12 (Homo sapiens) (UniProt P53778); assay: Inhibition of full length recombinant human SAPK3 at 100 uM in presence of ATP relative to control
[6] = target: Glycogen synthase kinase-3 beta (Homo sapiens, UniProt P49841); assay: Inhibition of recombinant human GSK3beta using […] as substrate at 100 uM after 60 mins by spectrophotometric analysis
Sequence of Glycogen synthase kinase-3 beta (P49841 whole entry, looked up): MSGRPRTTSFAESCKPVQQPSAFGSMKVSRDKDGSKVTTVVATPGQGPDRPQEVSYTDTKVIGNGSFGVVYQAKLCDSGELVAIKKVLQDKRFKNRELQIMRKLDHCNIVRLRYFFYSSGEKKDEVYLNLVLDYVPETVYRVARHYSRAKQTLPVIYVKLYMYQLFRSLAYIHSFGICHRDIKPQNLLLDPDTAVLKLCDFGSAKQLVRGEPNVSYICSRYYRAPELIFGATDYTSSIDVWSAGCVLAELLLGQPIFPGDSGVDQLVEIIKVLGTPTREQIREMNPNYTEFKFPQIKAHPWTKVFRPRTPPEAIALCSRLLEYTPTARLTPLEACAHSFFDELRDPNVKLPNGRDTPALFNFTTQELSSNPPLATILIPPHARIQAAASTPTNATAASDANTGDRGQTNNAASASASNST

[7] = target: Mitogen-activated protein kinase 8 (Homo sapiens) (UniProt P45983); assay: Inhibition of human JNK1alpa1 using at 100 uM after 90 mins in presence of ATP relative to control
cells = conditions: Homo sapiens, OVCA433, 48 h
Description: Antiproliferative activity against human OVCA433 cells measured after 48 hrs by MTT assay

[8] = target: Cyclin-dependent kinase 1/cyclin B1 (Homo sapiens) (UniProt P06493+P14635); assay: Inhibition of recombinant human CDK1/CyclinB using Ulight-CFFKNIVTPRTPPPSQGK-amide as substrate at 100 uM after 15 mins in presence of ATP relative to control; assay type: protein-complex assay
[9] = target: Insulin-like growth factor 1 receptor (Homo sapiens) (UniProt P08069); assay: Inhibition of IGF1R (unknown origin) using poly (Glu, Tyr) 4:1 as substrate at 100 uM after 1 hr by ELISA relative to control
[10] = target: Platelet-derived growth factor receptor beta (Homo sapiens) (UniProt P09619); assay: Inhibition of PDGFRbeta (unknown origin) using poly (Glu, Tyr) 4:1 as substrate at 100 uM after 1 hr by ELISA relative to control
[11] = target: Receptor tyrosine-protein kinase erbB-4 (Homo sapiens) (UniProt Q15303); assay: Inhibition of ErbB4 (unknown origin) using poly (Glu, Tyr) 4:1 as substrate at 100 uM after 1 hr by ELISA relative to control
A2780 [12] = assay: Antitumor activity against human A2780 cells xenografted in BALB/c nude mouse assessed as tumor growth inhibition at 30 mg/kg, ip administered once every 2 days for 14 consecutive days relative to control; assay type: functional; conditions: read-out: TGI
Saccharomyces cerevisiae = assay: Inhibition of yeast CK1 using poly (Glu, Tyr) 4:1 as substrate after 1 hr by ELISA relative to control; conditions: concentration not given here
[13] = target: Fibroblast growth factor receptor 1 (Homo sapiens) (UniProt P11362); assay: Inhibition of FGFR1 (unknown origin) using poly (Glu, Tyr) 4:1 as substrate at 100 uM after 1 hr by ELISA relative to control
A2780 [14] = assay: Antitumor activity against human A2780 cells xenografted in BALB/c nude mouse assessed as tumor growth inhibition at 50 mg/kg, ip administered once every 2 days for 14 consecutive days relative to control; assay type: functional; conditions: read-out: TGI
[15] = target: Serine/threonine-protein kinase Chk1 (Homo sapiens) (UniProt O14757); assay: Inhibition of recombinant human CHK1 using CREBtide as substrate at 100 uM after 30 mins in presence of ATP relative to control
A2780 [16] = assay: Cell cycle arrest in human A2780 cells assessed as decrease in S phase after 48 hrs by propidium iodide staining based flow cytometry; assay type: functional
[17] = target: Vascular endothelial growth factor receptor 1 (Homo sapiens) (UniProt P17948); assay: Inhibition of VEGFR-1 (unknown origin) using poly (Glu, Tyr) 4:1 as substrate at 100 uM after 1 hr by ELISA relative to control
Sequence of Vascular endothelial growth factor receptor 1 (Homo sapiens) (P17948 whole entry): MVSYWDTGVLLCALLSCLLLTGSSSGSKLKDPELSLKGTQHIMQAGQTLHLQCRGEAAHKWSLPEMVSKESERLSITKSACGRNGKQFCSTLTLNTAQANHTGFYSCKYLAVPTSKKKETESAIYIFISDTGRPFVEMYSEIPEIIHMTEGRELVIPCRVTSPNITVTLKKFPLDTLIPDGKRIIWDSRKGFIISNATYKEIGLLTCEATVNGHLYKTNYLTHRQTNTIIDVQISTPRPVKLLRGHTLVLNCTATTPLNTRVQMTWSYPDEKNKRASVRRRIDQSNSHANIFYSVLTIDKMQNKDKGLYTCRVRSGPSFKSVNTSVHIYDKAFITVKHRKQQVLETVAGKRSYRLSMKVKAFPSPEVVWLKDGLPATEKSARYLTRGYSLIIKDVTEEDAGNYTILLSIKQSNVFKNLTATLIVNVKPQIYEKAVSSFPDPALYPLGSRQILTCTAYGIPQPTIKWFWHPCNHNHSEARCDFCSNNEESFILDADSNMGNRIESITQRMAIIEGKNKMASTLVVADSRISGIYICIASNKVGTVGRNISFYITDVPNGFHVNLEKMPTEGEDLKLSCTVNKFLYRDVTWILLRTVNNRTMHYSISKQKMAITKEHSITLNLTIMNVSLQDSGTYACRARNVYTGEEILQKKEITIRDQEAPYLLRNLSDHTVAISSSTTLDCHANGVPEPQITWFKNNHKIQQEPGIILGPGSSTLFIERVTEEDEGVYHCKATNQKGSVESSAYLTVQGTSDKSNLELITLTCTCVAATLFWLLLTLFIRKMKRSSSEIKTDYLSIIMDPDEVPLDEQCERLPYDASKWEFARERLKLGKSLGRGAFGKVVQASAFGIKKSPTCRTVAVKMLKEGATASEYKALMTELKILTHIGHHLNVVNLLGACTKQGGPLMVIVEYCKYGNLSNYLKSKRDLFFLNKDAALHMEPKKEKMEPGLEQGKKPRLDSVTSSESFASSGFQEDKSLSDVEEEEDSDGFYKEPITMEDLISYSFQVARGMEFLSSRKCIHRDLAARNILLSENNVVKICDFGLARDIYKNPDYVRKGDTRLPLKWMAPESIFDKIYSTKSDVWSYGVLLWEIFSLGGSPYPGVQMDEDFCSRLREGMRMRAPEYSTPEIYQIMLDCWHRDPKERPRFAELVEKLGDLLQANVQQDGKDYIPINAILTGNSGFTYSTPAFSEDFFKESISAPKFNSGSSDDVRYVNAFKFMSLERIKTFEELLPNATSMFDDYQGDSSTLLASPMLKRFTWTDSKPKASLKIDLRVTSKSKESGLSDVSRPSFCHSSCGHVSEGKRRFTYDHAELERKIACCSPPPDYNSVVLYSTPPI

A2780 [18] = assay: Antiproliferative activity against human A2780 cells measured after 48 hrs by MTT assay; assay type: functional, cell-based; conditions: A2780, 48 h
[19] = target: 3-phosphoinositide-dependent protein kinase 1 (Homo sapiens) (UniProt O15530); assay: Inhibition of recombinant human PDK1 using Ulight-FLGFTYVAP as substrate at 100 uM after 90 mins in presence of ATP relative to control
[20] = target: Hepatocyte growth factor receptor (Homo sapiens) (UniProt P08581); assay: Inhibition of c-Met (unknown origin) using poly (Glu, Tyr) 4:1 as substrate at 100 uM after 1 hr by ELISA relative to control
A2780 [21] = assay: Induction of apoptosis in human A2780 cells assessed as total apoptotic cells at 5 to 20 uM after 24 hrs by annexin V/propidium iodide staining based flow cytometry (reference value: 17.3%); assay type: functional
[22] = target: Mitogen-activated protein kinase 13 (Homo sapiens) (UniProt O15264); assay: Inhibition of recombinant human SAPK4 using Ulight-CFFKNIVTPRTPPPSQGK-amide as substrate at 100 uM after 15 mins in presence of ATP relative to control
[23] = target: Mast/stem cell growth factor receptor Kit (Homo sapiens) (UniProt P10721); assay: Inhibition of c-kit (unknown origin) using poly (Glu, Tyr) 4:1 as substrate at 100 uM after 1 hr by ELISA relative to control
Sequence of Mast/stem cell growth factor receptor Kit (Homo sapiens) (P10721 whole entry): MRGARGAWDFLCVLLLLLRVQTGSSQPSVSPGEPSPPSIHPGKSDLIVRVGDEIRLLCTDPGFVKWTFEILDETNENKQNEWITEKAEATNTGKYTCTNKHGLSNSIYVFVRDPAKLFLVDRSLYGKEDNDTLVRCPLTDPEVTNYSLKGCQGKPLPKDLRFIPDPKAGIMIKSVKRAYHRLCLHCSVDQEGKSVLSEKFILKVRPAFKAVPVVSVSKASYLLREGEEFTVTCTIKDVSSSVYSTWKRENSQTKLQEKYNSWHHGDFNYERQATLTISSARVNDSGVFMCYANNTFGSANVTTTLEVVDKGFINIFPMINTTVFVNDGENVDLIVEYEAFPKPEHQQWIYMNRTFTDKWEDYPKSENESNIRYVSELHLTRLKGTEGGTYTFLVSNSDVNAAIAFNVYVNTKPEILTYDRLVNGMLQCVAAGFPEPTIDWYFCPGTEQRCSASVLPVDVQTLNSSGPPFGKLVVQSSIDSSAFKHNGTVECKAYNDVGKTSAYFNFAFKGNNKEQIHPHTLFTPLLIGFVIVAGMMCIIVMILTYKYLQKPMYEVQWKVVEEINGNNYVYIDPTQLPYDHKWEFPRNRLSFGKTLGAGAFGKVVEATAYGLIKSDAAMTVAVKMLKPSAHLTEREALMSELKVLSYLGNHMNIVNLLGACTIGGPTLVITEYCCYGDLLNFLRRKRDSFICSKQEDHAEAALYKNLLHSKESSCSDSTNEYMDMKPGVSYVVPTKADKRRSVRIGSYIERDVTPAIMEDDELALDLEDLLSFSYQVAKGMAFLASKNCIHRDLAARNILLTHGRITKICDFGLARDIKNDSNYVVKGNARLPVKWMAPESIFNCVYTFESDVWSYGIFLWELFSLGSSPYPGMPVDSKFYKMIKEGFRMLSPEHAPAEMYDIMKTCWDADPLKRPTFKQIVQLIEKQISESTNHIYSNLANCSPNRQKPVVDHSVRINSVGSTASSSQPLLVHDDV

[24] = target: Proto-oncogene tyrosine-protein kinase Src (Homo sapiens) (UniProt P12931); assay: Inhibition of c-Src (unknown origin) using poly (Glu, Tyr) 4:1 as substrate at 100 uM after 1 hr by ELISA relative to control
[25] = target: Platelet-derived growth factor receptor alpha (Homo sapiens) (UniProt P16234); assay: Inhibition of PDGFRalpha (unknown origin) using poly (Glu, Tyr) 4:1 as substrate at 100 uM after 1 hr by ELISA relative to control
Sequence of Platelet-derived growth factor receptor alpha (Homo sapiens) (P16234 whole entry): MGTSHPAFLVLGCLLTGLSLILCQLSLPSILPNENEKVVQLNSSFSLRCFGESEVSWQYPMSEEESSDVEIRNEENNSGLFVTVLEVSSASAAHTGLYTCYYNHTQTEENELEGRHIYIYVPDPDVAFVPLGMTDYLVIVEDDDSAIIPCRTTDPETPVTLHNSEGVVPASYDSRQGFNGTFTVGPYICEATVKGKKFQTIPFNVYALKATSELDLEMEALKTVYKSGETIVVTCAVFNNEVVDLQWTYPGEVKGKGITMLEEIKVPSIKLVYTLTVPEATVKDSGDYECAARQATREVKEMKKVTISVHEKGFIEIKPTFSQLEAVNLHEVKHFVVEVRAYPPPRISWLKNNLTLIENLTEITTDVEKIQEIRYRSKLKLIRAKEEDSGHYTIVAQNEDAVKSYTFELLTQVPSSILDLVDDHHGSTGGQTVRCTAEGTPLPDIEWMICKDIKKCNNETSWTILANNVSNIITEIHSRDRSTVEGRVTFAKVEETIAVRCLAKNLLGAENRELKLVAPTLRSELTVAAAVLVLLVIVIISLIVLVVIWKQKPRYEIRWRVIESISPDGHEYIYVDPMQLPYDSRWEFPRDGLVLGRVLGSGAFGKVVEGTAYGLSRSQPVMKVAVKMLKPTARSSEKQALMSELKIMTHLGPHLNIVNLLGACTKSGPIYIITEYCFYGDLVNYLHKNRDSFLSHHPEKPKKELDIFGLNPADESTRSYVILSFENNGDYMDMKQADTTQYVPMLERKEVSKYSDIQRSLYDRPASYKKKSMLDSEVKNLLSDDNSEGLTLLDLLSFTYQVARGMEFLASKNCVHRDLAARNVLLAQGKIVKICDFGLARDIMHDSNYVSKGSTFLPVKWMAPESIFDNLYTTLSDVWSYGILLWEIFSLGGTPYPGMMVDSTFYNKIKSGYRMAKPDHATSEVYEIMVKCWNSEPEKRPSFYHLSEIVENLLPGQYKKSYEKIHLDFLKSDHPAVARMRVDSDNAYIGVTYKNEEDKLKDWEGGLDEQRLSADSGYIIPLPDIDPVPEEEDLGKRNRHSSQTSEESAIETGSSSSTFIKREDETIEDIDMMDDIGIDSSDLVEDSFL

Mus musculus = assay: Toxicity in nude BALB/c mouse xenografted with human A2780 cells assessed as body weight loss at 30 mg/kg, ip administered once every 2 days for 14 consecutive days relative to control; assay type: organism-based; conditions: in vivo, 48 h
[26] = Toxicity in nude BALB/c mouse xenografted with human A2780 cells assessed as body weight loss at 50 mg/kg, ip administered once every 2 days for 14 consecutive days relative to control; assay type: organism-based; conditions: in vivo, 48 h

Sequence of Dual specificity mitogen-activated protein kinase kinase 1 (Homo sapiens) (Q02750 whole entry): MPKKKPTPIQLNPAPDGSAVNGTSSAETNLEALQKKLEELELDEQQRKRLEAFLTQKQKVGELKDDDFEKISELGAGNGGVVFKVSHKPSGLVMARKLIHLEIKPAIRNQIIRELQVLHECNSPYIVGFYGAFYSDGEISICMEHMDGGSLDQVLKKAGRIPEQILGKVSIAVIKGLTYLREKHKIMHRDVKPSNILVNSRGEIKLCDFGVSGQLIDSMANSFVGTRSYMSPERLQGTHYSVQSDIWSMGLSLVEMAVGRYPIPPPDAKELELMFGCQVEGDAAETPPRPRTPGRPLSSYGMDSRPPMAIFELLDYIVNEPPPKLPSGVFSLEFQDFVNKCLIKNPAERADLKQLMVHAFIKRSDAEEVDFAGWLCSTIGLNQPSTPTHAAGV

CCCCCCCCCCCCCCC(=O)NC1CCN(C(=O)C2Sc3ccccc3N(CC)C2=O)CC1 (stereo not given)
inhibition [1]: 12%
inhibition [2]: 22.5%
inhibition [3]: 33.8%
inhibition [4]: -7%
inhibition (Homo sapiens): 0%
inhibition [5]: 19%
inhibition [6]: 94.3%
inhibition [7]: -3%
IC50 (cells): 8.3 µM
inhibition [8]: 7%
inhibition [9]: 5.1%
inhibition [10]: 19.6%
inhibition [11]: 34.3%
inhibition in vivo at 30 mg/kg (A2780 [12]): 37.8%
inhibition (Saccharomyces cerevisiae): 14%
inhibition [13]: 9.3%
inhibition in vivo at 50 mg/kg (A2780 [14]): 41.3%
inhibition [15]: -8%
Activity (A2780 [16]): Dose-dependent effect
inhibition [17]: 6.8%
IC50 (A2780 [18]): 4.6 µM
inhibition [19]: 0%
inhibition [20]: -4.8%
Activity (A2780 [21]): 83.3%
inhibition [22]: 16%
inhibition [23]: 0%
inhibition [24]: 3.2%
inhibition [25]: 0%
Activity (Mus musculus): Non-Toxic
Activity [26]: Non-Toxic
